Measurements as given in patent US20200131669A1, “CYCLIC PEPTIDE COMPOUND HAVING HIGH MEMBRANE PERMEABILITY, AND LIBRARY CONTAINING SAME” (Chugai Seiyaku Kabushiki Kaisha, priority 2017, published 2020).
Like-named read-outs stand apart in the source and are kept apart here. Starred links: 1 amine or outer side, 2 acyl side, 3 side chain; linkers in the order of their positions; H or OH if unused. Positions of bridges follow the written chain, without caps; N, C: chain ends. Non-standard residues stand in square brackets, D forms with d. Residues, ends and D or L forms follow the SMILES beside them. ξ: configuration not given here. *: point of attachment. NMePhe(3-Cl) = CN[C@@H](Cc1cccc(Cl)c1)C(=O)O; X5 = O=C(C(CCc1noc(=O)[nH]1)N[*:1])[*:2]; Ethyl(2-morpholino) = C1CN(CC*)CCO1; NMeF = CN[C@@H](Cc1ccccc1)C(=O)O; NMeGABA = CN(CCCC(=O)[*:2])[*:1]; NMeI = CC[C@H](C)[C@H](NC)C(=O)O; ξThr(3R) = C[C@@H](O)C(N)C(=O)O; NMeL = CN[C@@H](CC(C)C)C(=O)O; Propyl(2R-OH) = C[C@@H](O)C*; NMeAbu = CC[C@H](NC)C(=O)O; Piperidide = C1CCN(*)CC1; NBuGly = CCCCNCC(=O)O; Bn = c1ccc(C*)cc1; ξS = NC(CO)C(=O)O; Sar = CNCC(=O)O; tBu = CC(C)(C)*

What was measured:
Caco-2 cells = test: Caco-2 membrane permeability, improved method as used in the following Examples (96-well, 20 to 24 h preincubation); assay type: in vitro ADME; conditions: human, Caco-2, 180 min
In short: (§1)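 Papp (cm/sec) was derived from LC/MS of basal samples collected 180 min after apical dosing in FaSSIF/HBSS pH 6.0 with 1% DMSO, against a basal HBSS pH 7.4 receiver containing 4% BSA. Three-week Caco-2 cultures were first preincubated with compound in DMEM+FaSSIF at 37 °C for 20–24 h.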

[1] = as above; assay type: in vitro ADME; conditions: human
In short: as §1

[2] = Papp, Caco-2 membrane permeability, improved method, read-out: Caco-2

Row | Structure (SMILES) | Papp A→B at 180 min ([1]; Caco-2, Caco-2) | Papp A→B at 180 min [1, 2] | other results
1 | CC[C@H](C)[C@@H]1NC(=O)[C@H](Cc2ccccc2)N(C)C(=O)CN(C)C(=O)C[C@@H](C(=O)N2CCCCC2)NC(=O)[C@H]([C@@H](C)CC)N(C)C(=O)C(COCc2ccccc2)NC(=O)[C@H](CC(C)C)N(C)C(=O)[C@H](Cc2ccccc2)N(C)C(=O)CN(C)C(=O)[C@H]([C@@H](C)O)NC(=O)[C@H](CC(C)C)N(C)C1=O (stereo partly drawn) [pd178] ([Sar][NMeF]I[NMeL]T[Sar][NMeF][NMeL][ξS](Bn)[NMeI]D-Piperidide; lactam N-11) |  |  | Caco-2 (Caco-2 cells): 2.5e-06 cm/s
2 | CCCCN1CC(=O)N(C)[C@@H](CC(C)C)C(=O)N[C@H](C(=O)N2CCCCC2)CC(=O)N(C)[C@@H](CC)C(=O)NC(COCCN2CCOCC2)C(=O)N(C)[C@@H](CC(C)C)C(=O)N(C)[C@@H](CC)C(=O)N[C@@H](C(C)C)C(=O)N(C)[C@@H](Cc2ccccc2)C(=O)N(C)[C@@H](CC(C)C)C(=O)N[C@@H]([C@@H](C)O)C1=O (stereo partly drawn) [pd483] ([NMeAbu][ξS](Ethyl(2-morpholino))[NMeL][NMeAbu]V[NMeF][NMeL]T[NBuGly][NMeL]D-Piperidide; lactam N-11) | 1.9 ×10⁻⁶ cm/s |  | 
3 | CCCCN1CC(=O)N(C)[C@@H](Cc2ccccc2)C(=O)N(C)[C@@H](CC(C)C)C(=O)N[C@@H](C(C)C)C(=O)N(C)[C@@H](CC(C)C)C(=O)N[C@H](C(=O)N2CCCCC2)CC(=O)N(C)CC(=O)N(C)[C@@H](CC(C)C)C(=O)NC(COCCN2CCOCC2)C(=O)N(C)[C@@H](CC(C)C)C(=O)N[C@@H]([C@@H](C)O)C1=O (stereo partly drawn) [pd484] ([Sar][NMeL][ξS](Ethyl(2-morpholino))[NMeL]T[NBuGly][NMeF][NMeL]V[NMeL]D-Piperidide; lactam N-11) | 1.8 ×10⁻⁶ cm/s |  | 
4 | CC[C@H](C)[C@@H]1NC(=O)[C@H](CC(C)C)N(C)C(=O)CCCN(C)C(=O)C[C@@H](C(=O)N2CCCCC2)NC(=O)[C@H](CC(C)C)N(C)C(=O)[C@H](CC(C)C)N(C)C(=O)[C@H](COCCN2CCOCC2)NC(=O)[C@H](CC(C)C)N(C)C(=O)[C@H](COC(C)(C)C)NC(=O)[C@H](CC)N(C)C(=O)[C@H](Cc2ccccc2)N(C)C1=O [pd485] ([NMeGABA][NMeL]I[NMeF][NMeAbu]S(tBu)[NMeL]S(Ethyl(2-morpholino))[NMeL][NMeL]D-Piperidide; lactam N-11) | 1.2 ×10⁻⁶ cm/s |  | 
5 | CCCCN1CC(=O)N(C)[C@@H](CC(C)C)C(=O)N[C@H](C(=O)N2CCCCC2)CC(=O)N(C)[C@@H](CC)C(=O)N[C@@H](CC(C)C)C(=O)N(C)[C@@H](CC(C)C)C(=O)N(C)[C@@H](Cc2ccccc2)C(=O)NC(CCc2noc(=O)[nH]2)C(=O)N(C)[C@@H](CC(C)C)C(=O)N(C)[C@@H](CC(C)C)C(=O)NC([C@@H](C)O)C1=O (stereo partly drawn) [pd487] ([NMeAbu]L[NMeL][NMeF][X5][NMeL][NMeL][ξThr(3R)][NBuGly][NMeL]D-Piperidide; lactam N-11) |  | 2.2 ×10⁻⁶ cm/s | 
6 | CCCCN1CC(=O)N(C)[C@@H](Cc2ccccc2)C(=O)N(C)[C@@H](CC(C)C)C(=O)N[C@@H](CC(C)C)C(=O)N(C)[C@@H](CC(C)C)C(=O)N[C@H](C(=O)N2CCCCC2)CC(=O)N(C)CC(=O)N(C)[C@@H](CC(C)C)C(=O)N[C@@H](C(C)C)C(=O)N(C)[C@@H](CC(C)C)C(=O)NC(CCc2noc(=O)[nH]2)C1=O (stereo partly drawn) [pd488] ([Sar][NMeL]V[NMeL][X5][NBuGly][NMeF][NMeL]L[NMeL]D-Piperidide; lactam N-11) |  | 1.6 ×10⁻⁶ cm/s | 
7 | CCCCN1CC(=O)N(C)[C@@H](Cc2ccccc2)C(=O)N(C)[C@@H](CC(C)C)C(=O)N[C@@H](COC(C)(C)C)C(=O)N(C)[C@@H](CC(C)C)C(=O)N[C@H](C(=O)N2CCCCC2)CC(=O)N(C)CC(=O)N(C)[C@@H](Cc2cccc(Cl)c2)C(=O)N[C@@H](COC[C@@H](C)O)C(=O)N(C)[C@@H](CC(C)C)C(=O)N[C@@H]([C@@H](C)O)C1=O [pd490] ([Sar][NMePhe(3-Cl)]S(Propyl(2R-OH))[NMeL]T[NBuGly][NMeF][NMeL]S(tBu)[NMeL]D-Piperidide; lactam N-11) | 1 ×10⁻⁶ cm/s |  | 
8 | CC(C)C[C@H]1C(=O)N[C@@H](COC(C)(C)C)C(=O)N(C)[C@@H](Cc2ccccc2)C(=O)N(C)[C@@H](CC(C)C)C(=O)N[C@H](C(=O)N2CCCCC2)CC(=O)N[C@@H](C(C)C)C(=O)N(C)[C@@H](Cc2ccccc2)C(=O)N[C@@H](COC[C@@H](C)O)C(=O)N(C)[C@@H](CC(C)C)C(=O)N[C@@H](C(C)C)C(=O)N(C)CC(=O)N1C [pd492] (V[NMeF]S(Propyl(2R-OH))[NMeL]V[Sar][NMeL]S(tBu)[NMeF][NMeL]D-Piperidide; lactam N-11) |  | 2.5 ×10⁻⁶ cm/s | 
9 | CC(C)C[C@H]1C(=O)N[C@@H](C(C)C)C(=O)N(C)[C@@H](Cc2ccccc2)C(=O)N(C)[C@@H](Cc2ccccc2)C(=O)N[C@@H](COC(C)(C)C)C(=O)N(C)[C@@H](CC(C)C)C(=O)N[C@@H](COC[C@@H](C)O)C(=O)N(C)[C@@H](CC(C)C)C(=O)N(C)[C@@H](CC(C)C)C(=O)N[C@H](C(=O)N2CCCCC2)CC(=O)N(C)CCCC(=O)N1C [pd493] ([NMeGABA][NMeL]V[NMeF][NMeF]S(tBu)[NMeL]S(Propyl(2R-OH))[NMeL][NMeL]D-Piperidide; lactam N-11) | 1.3 ×10⁻⁶ cm/s |  | 
